# Measured values taken from ChEMBL document CHEMBL4304757, “Synthetic heterocyclic candidates as promising α-glucosidase inhibitors: An overview” (Eur J Med Chem, 2019).
# pIC50: −log10 of the molar value.
# How the values were obtained:
# [1] = target: T1, Alpha glucosidase (Homo sapiens, UniProt O43451+P10253+P14410+Q2M2H8); assay: Inhibition of alpha-glucosidase (unknown origin) using p-nitrophenyl-alpha-d-glucopyranoside as substrate preincubated for 30 mins followed by substrate addition measured for 60 secs by spectrophotometric analysis; assay type: protein assay
# [2] = target: T1, Alpha glucosidase; assay: Inhibition of alpha-glucosidase (unknown origin) using pNPG as substrate preincubated for 15 mins followed by substrate addition; assay type: protein assay
# [3] = Inhibition of yeast alpha-glucosidase; parameters: species or system Saccharomyces cerevisiae
# [4] = Inhibition of mouse alpha-glucosidase
# [5] = Inhibition of urease (unknown origin) assessed as reduction in ammonia production using urea as substrate after 15 mins by indophenol method
# [6] = target: T1, Alpha glucosidase; assay: Inhibition of alpha-glucosidase (unknown origin) using p-nitro phenyl glucopyranoside as substrate preincubated for 10 mins followed by substrate addition measured after 10 mins; assay type: protein assay
# [7] = target: T1, Alpha glucosidase; assay: Inhibition of alpha-glucosidase (unknown origin) using p-nitrophenyl-alpha-d-glucopyranoside as substrate preincubated for 5 mins followed by substrate addition measured after 30 mins; assay type: protein assay
# [8] = target: T1, Alpha glucosidase; assay: Potency index, ratio of acarbose IC50 to compound IC50 for inhibition of alpha-glucosidase (unknown origin) using p-nitrophenyl-alpha-d-glucopyranoside as substrate preincubated for 5 mins followed by substrate addition measured after 30 mins; assay type: protein assay
# [9] = target: T1, Alpha glucosidase; assay: Inhibition of alpha-glucosidase (unknown origin) using p-nitrophenyl-alpha-d-glucopyranoside as substrate preincubated for 10 mins followed by substrate addition measured after 20 mins; assay type: protein assay
# [10] = target: T1, Alpha glucosidase; assay: Competitive inhibition of alpha-glucosidase (unknown origin) using p-nitrophenyl-alpha-d-glucopyranoside as substrate preincubated for 10 mins followed by substrate addition measured after 20 mins; assay type: protein assay
# [11] = target: T1, Alpha glucosidase; assay: Inhibition of alpha-glucosidase (unknown origin) using p-nitrophenyl-alpha-d-glucopyranoside as substrate preincubated for 30 mins followed by substrate addition measured after 60 mins; assay type: protein assay
# [12] = Inhibition of rat intestinal maltase-glucoamylase using p-nitrophenyl alpha-D-glucoside as substrate preincubated for 5 mins followed by substrate addition and measured after 30 mins
# [13] = target: T1, Alpha glucosidase; assay: Inhibition of alpha-glucosidase (unknown origin) using p-nitro phenyl glucopyranoside as substrate preincubated for 5 mins followed by substrate addition measured after 30 mins; assay type: protein assay
# [14] = target: T2, Alpha amylase (Homo sapiens, UniProt P0DUB6); assay: Inhibition of alpha-amylase (unknown origin) using p-nitro phenyl glucopyranoside as substrate preincubated for 10 mins followed by substrate addition measured after 10 mins
# T2 sequence (P0DUB6 whole entry): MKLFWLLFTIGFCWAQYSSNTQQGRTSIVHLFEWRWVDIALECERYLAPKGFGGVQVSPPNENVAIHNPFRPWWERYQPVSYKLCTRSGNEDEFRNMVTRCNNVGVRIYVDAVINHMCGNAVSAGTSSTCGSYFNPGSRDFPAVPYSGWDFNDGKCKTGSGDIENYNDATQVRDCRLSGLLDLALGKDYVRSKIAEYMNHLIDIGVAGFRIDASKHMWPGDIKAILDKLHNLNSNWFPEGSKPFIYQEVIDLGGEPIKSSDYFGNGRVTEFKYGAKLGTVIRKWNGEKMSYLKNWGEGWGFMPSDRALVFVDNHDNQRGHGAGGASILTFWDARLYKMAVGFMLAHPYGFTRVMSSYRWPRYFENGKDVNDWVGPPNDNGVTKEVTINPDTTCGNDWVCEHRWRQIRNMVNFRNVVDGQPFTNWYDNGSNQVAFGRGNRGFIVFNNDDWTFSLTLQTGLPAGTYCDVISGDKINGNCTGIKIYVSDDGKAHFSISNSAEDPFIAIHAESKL
# [15] = Inhibition of yeast alpha-glucosidase using p-nitrophenyl-alpha-d-glucopyranoside as substrate preincubated with enzyme followed by substrate addition measured after 30 mins by spectrophotometric analysis; parameters: species or system Saccharomyces cerevisiae
# [16] = target: T1, Alpha glucosidase; assay: Inhibition of alpha-glucosidase (unknown origin) using p-nitro phenyl glucopyranoside as substrate preincubated for 10 mins followed by substrate addition measured after 30 mins; assay type: protein assay
# [17] = target: T1, Alpha glucosidase; assay: Non-competitive inhibition of alpha-glucosidase (unknown origin) using p-nitro phenyl glucopyranoside as substrate preincubated for 10 mins followed by substrate addition measured after 30 mins; assay type: protein assay
# [18] = Inhibition of yeast alpha-glucosidase using p-nitrophenyl-alpha-d-glucopyranoside as substrate preincubated with enzyme followed by substrate addition measured after 30 mins; parameters: species or system Saccharomyces cerevisiae
smiles,measurement,setting,value
C(=N\Nc1nc(-c2ccc(-c3ccccc3)cc2)cs1)/c1cccc2ccccc12,IC50,[1],6.2 µM
Cc1cccc2nc(-c3ccccc3Cl)[nH]c12,IC50,[2],5.3 µM
COc1ccc(/C=C/C(=O)C2=C(/C=C/c3ccc(OC)c(O)c3)Oc3[nH]c(=O)[nH]c(=O)c3C2c2ccccc2)cc1O (stereo unspecified),pIC50,[3],3.92 to 4.01
same,pIC50,[4],3.38 to 4.01
Oc1ccc(-c2nc3ccc(Br)cc3[nH]2)cc1,pIC50,[5],5.08
O=C1NC(=O)/C(=C\c2ccc(-n3ccc4c(Br)ccnc43)cc2)S1,pIC50,[6],4.46 to 6.26
O=C(O)CN1C(=O)S/C(=C/c2ccc(-n3ccc4c(Br)ccnc43)cc2)C1=O,pIC50,[6],4.46 to 6.26
Cc1ccccc1C(=O)/N=c1\scc(C)n1-c1cc(Cl)c(Cl)cc1Cl,IC50,[7],0.15 µM
same,Ratio IC50,[8],255
Cc1ccc(C(c2c(N)c3ccccc3oc2=O)c2c(N)c3ccccc3oc2=O)cc1,IC50,[9],20 µM
same,Ki,[10],22 µM
Oc1ccc(Br)cc1-c1nc2cc(Cl)ccc2s1,IC50,[1],22 µM
COc1ccc(/C=C/C(=O)C2=C(/C=C/c3ccc(OC)c(O)c3)Oc3[nH]c(=O)[nH]c(=O)c3C2c2ccc(Cl)cc2)cc1O (stereo unspecified),pIC50,[3],3.92 to 4.01
same,pIC50,[4],3.38 to 4.01
O=C1NC(=O)/C(=C\c2ccc(-n3cnc4ccccc43)cc2)S1,pIC50,[6],4.46 to 6.26
Cc1nccn1-c1ccc(/C=C2/SC(=O)NC2=O)cc1,pIC50,[6],4.46 to 6.26
O=C1NC(=O)/C(=C\c2ccc(-n3ccc4c(Nc5ccc(F)cc5)ccnc43)cc2)S1,pIC50,[6],4.46 to 6.26
Cc1cs/c(=N\C(=O)c2cccc3ccccc23)n1-c1cc(Cl)c(Cl)cc1Cl,IC50,[7],0.15 µM
same,Ratio IC50,[8],255
O=C1NC(=O)/C(=C\c2ccc(-n3cc([N+](=O)[O-])cn3)cc2)S1,pIC50,[6],4.46 to 6.26
Clc1ccc(/N=c2\scc(-c3ccc(Cl)cc3)n2Nc2ccccc2)cc1,IC50,[11],9.6 µM
O=C1NC(=O)/C(=C\c2ccc(-n3ncc4ccccc43)cc2)S1,pIC50,[6],4.46 to 6.26
O=C1NC(=O)/C(=C\c2ccc(-n3ccc4c(Nc5ccccc5OC(F)(F)F)ccnc43)cc2)S1,pIC50,[6],4.46 to 6.26
COc1ccc(/C=C/C(=O)C2=C(/C=C/c3ccc(OC)c(O)c3)Oc3[nH]c(=O)[nH]c(=O)c3C2c2cccc([N+](=O)[O-])c2)cc1O (stereo unspecified),pIC50,[3],3.92 to 4.01
same,pIC50,[4],3.38 to 4.01
O=c1oc2ccccc2cc1-c1nn(C(Nc2ccc(Oc3ccc(NC(c4cccc(Br)c4)n4nc(-c5cc6ccccc6oc5=O)oc4=S)cc3)cc2)c2cccc(Br)c2)c(=S)o1 (stereo unspecified),pIC50,[12],7.40
same,IC50,[13],0.07 µM
CCOC(=O)CN1C(=O)S/C(=C/c2ccc(-n3ccc4c(Br)ccnc43)cc2)C1=O,IC50,[14],0.85 µM
same,IC50,[6],0.55 µM
COc1ccc(/C=C/C(=O)C2=C(/C=C/c3ccc(OC)c(O)c3)Oc3[nH]c(=O)[nH]c(=O)c3C2c2cc3ccccc3[nH]2)cc1O (stereo unspecified),pIC50,[3],3.92 to 4.01
same,pIC50,[4],3.38 to 4.01
O=C(CCCSc1nc2ccccc2s1)Nc1cccc2ccccc12,pIC50,[15],5.00
O=C(N/N=C/c1cc(Cl)cc(Cl)c1O)c1nc(-c2cc3ccccc3oc2=O)cs1,IC50,[16],6.2 µM
same,Ki,[17],6.8 µM
CC1=NN(c2ccc([N+](=O)[O-])cc2)C(=O)/C1=C/c1cn(-c2ccccc2)nc1-c1cc2cc(Br)ccc2oc1=O,pIC50,[18],5.68
CC1=NN(c2ccccc2)C(=O)/C1=C/c1cn(-c2ccccc2)nc1-c1cc2cc(Br)ccc2oc1=O,pIC50,[18],3.54 to 5.68
